Results reported in patent publication US4001228A, “2-Thiol-4,5-diphenyloxazole S-derivatives” (Serono Laboratories, Inc., priority 1974, dated 1977).
Structures can show the parent of a compound that is named as a salt. Where two headings read alike, the source gives them in different places.

Columns and labels:
[1] = tested on: ADP induced platelet aggregation (platelet-rich rabbit plasma); assay: ADP (5 μg/ml) induced platelet aggregation in vitro on platelet-rich plasma; format: cell-based; conditions: Oryctolagus cuniculus, 10 min
Experimental: (§1) The inhibitory activity on platelet aggregation was determined for the same compounds in vitro on platelet-rich rabbit plasma prepared by collecting the blood in a plastic centrifuge tube containing enough 3.8% sodium citrate to give a concentration of 0.38 g/100 ml when mixed with the blood, and then centrifuging at 100 × g for 20 minutes.
(§2) 1 ml aliquots of the thus prepared plasma were placed in a Platelet Aggregation Meter connected to a potentiometric recorder and tested according to Born, Nature (London), 194, 927 (1962).
(§3) The plasma-test compound mixtures were incubated for 10 min. at 37° C before addition of the aggregating agents, that is, Adenosine Diphosphate (ADP) or collagen.
(§4) The curves were read following the method described by O'Brien et al., Thromb. Diath. Haemorrhag. 16, 751 (1966). Slope and maximum transmission were recorded and expressed as % change with respect to controls. In the case of collagen induced platelet aggregation, the delay time ("reaction time") in seconds from the addition of the aggregating agent to the inflection of the curve was also measured and expressed as % change as above. For comparison purposes, acetylsalicylic acid (ASA) was also tested in the same conditions as the test compounds.
(§5) Negative figures in slope and maximum transmission % changes indicate antiaggregating activity. Positive figures in delay time % changes indicate that the compound is effective in prolonging the reaction time in the collagen induced platelet aggregation test.

[2] = tested on: collagen induced platelet aggregation (platelet-rich rabbit plasma); assay: Collagen (40 μg/ml) induced platelet aggregation in vitro on platelet-rich plasma; format: cell-based; conditions: Oryctolagus cuniculus, 10 min
Experimental: as §1, §2, §3, §4, §5

[3] = Acute toxicity determined as approximate LD50; format: in vivo; conditions: mouse, in vivo, ip; three groups of three "Swiss" mice
Experimental: (§6) The acute toxicity of some of the compounds of formula (I) was determined as approximate LD50, according to the method described in Acta Pharmacol, et toxicol, 25, 345 (1967), on three groups of three "Swiss" mice.

"Swiss" mice = assay: Acute toxicity determined as approximate LD50; format: in vivo; conditions: i.p.; three groups of three "Swiss" mice
Experimental: as §6

[4] = read-out: Maximum transmission, % change

| Compound | inhibition at 100 µg/mL [1, 4] [%] | inhibition at 100 µg/mL ([1]; read-out: Slope, % change) [%] | inhibition at 1.25 µg/mL [2, 4] [%] | inhibition at 1.25 µg/mL ([2]; read-out: Slope, % change) [%] | LD50 [3] [mg/kg] | water solubility (Solubility (qualitative)) | Approximate LD50 ("Swiss" mice) [mg/kg] | also measured |
| --- | --- | --- | --- | --- | --- | --- | --- | --- |
| CC(=O)Oc1ccccc1C(=O)O [ASA, acetylsalicylic acid, reference compound] | 13.2 | 17.4 | 15.2 | 22.1 | – | – | – | – |
| O=C(O)CSc1nc(-c2ccccc2)c(-c2ccccc2)o1 [Example 2, S-(4,5-DIPHENYLOXAZOL-2-yl)-MERCAPTOACETIC ACID] | – | – | – | – | ~220 | – | – | – |
| O=C(O)CSc1nc(-c2ccccc2)c(-c2ccccc2)o1 [Example 3, 2-DIMETHYLAMINOETHANOL SALT OF S-(4,5-DIPHENYLOXAZOL-2-YL)-MERCAPTOACETIC ACID] | – | – | – | – | – | water-soluble | ~220 | – |
| O=C(O)CSc1nc(-c2ccccc2)c(-c2ccccc2)o1 [Example 4, METHYLAMINOETHANOL SALT OF S-(4,5-DIPHENYLOXAZOL-2-YL)-MERCAPTOACETIC ACID] | – | – | – | – | – | – | ~220 | – |
| CN(C)CCOC(=O)CSc1nc(-c2ccccc2)c(-c2ccccc2)o1 [Example 5, 2-DIMETHYL[…]-(4,5-DIPHENYLOXAZOL-2-YL)-MERCAPTOACETATE] | 45.2 | 47.2 | 67.7 | 72.5 | ~220 | water soluble | – | – |
| NC(=O)CSc1nc(-c2ccccc2)c(-c2ccccc2)o1 [Example 9, S-(4,5-DIPHENYLOXAZOL-2-YL)-MERCAPTOACETAMIDE] | – | – | – | – | ~1200 | – | – | inhibition at 100 µg/mL ([1]; ADP 5 μg/ml, compound 100 μg/ml, 10 min incubation at 37° C, change with respect to controls, negative = antiaggregating, read-out: Maximum transmission, % change): 6.6%; inhibition at 100 µg/mL ([1]; ADP 5 μg/ml, compound 100 μg/ml, 10 min incubation at 37° C, change with respect to controls, negative = antiaggregating, read-out: Slope, % change): 7.1%; inhibition at 1.25 µg/mL ([2]; collagen 40 μg/ml, compound 1.25 μg/ml, 10 min incubation at 37° C, change with respect to controls, negative = antiaggregating, read-out: Maximum transmission, % change): 12.3%; inhibition at 1.25 µg/mL ([2]; collagen 40 μg/ml, compound 1.25 μg/ml, 10 min incubation at 37° C, change with respect to controls, negative = antiaggregating, read-out: Slope, % change): 18.4% |
